From ChEMBL document CHEMBL5537165, “Hepatitis C: The Story of a Long Journey through First, Second, and Third Generation NS3/4A Peptidomimetic Inhibitors. What Did We Learn?” (J Med Chem, 2024)
*1 amine or outer side, *2 acyl side, *3 side chain or, on linkers, in order; H or OH if unused. Where a SMILES comes first, the peptide text is derived from it. Side-chain parts run from the residue outwards. [ ]: non-standard residue; d: D form. The star is where a group is joined. Tetrahydroisoquinolin(2-yl) = c1ccc2c(c1)CCN(*)C2; Pyrazinecarbonyl = O=C(c1cnccn1)*; Hyp = O=C(O)[C@@H]1C[C@@H](O)CN1; Abu = CC[C@H](N)C(=O)O; CO = O=C([*:1])[*:2]; Bn = c1ccc(C*)cc1

Assays:
[1] = biological target: T1, Non-structural protein 4b (Hepacivirus hominis, UniProt F5B4I0); test: Inhibition of full length Hepatitis C virus genotype 1b NS4B expressed in Escherichia coli
T1 sequence (F5B4I0 whole entry): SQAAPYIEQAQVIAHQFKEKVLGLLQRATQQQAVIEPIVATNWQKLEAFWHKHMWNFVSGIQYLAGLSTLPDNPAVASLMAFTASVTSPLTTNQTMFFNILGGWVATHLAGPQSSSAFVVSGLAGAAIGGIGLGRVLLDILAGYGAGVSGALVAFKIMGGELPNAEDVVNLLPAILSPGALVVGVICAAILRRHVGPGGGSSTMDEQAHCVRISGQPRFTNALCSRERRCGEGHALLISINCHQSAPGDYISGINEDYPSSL

[2] = biological target: T1, Non-structural protein 4b; test: Binding affinity to Hepatitis C virus genotype 1 NS4B assessed as inhibition constant
[3] = Inhibition of Hepatitis C virus NS3 protease; parameters: species or system Hepacivirus hominis
[4] = Oral bioavailability in Sprague-Dawley rat; assay type: ADME, organism-based; settings: in vivo
[5] = Oral bioavailability in Beagle dog at 2 mg/kg; assay type: ADME, organism-based, Canis lupus familiaris; settings: in vivo
[6] = Clearance in Sprague-Dawley rat at 2 mg/kg, iv by LC-MS/MS analysis; assay type: ADME, organism-based; settings: in vivo
[7] = biological target: T1, Non-structural protein 4b; test: Binding affinity to Hepatitis C virus genotype 1a NS4B assessed as inhibition constant
[8] = biological target: T1, Non-structural protein 4b; test: Binding affinity to Hepatitis C virus genotype 3a NS4B assessed as inhibition constant
[9] = Cmax in Sprague-Dawley rat at 3 mg/kg, po and measured upto 24 hrs by LC-MS/MS analysis; assay type: ADME, organism-based; settings: in vivo
[10] = Half life in Sprague-Dawley rat at 5 mg/kg, po by LC-MS/MS analysis; assay type: ADME, organism-based; settings: in vivo
[11] = AUC (0 to infinity) in liver to plasma of Sprague-Dawley rat at 3 mg/kg,po; assay type: ADME, organism-based; settings: in vivo
[12] = Half life in Beagle dog at 5 mg/kg, po by LC-MS/MS analysis; assay type: ADME, organism-based, Canis lupus familiaris; settings: in vivo
[13] = AUC in Sprague-Dawley rat plasma […] at 10 mg/kg, po administered via gavage by LC-MS/MS analysis; assay type: ADME, organism-based; settings: in vivo
[14] = Cmax in Beagle dog at 3 mg/kg, po and measured upto 24 hrs by LC-MS/MS analysis; assay type: ADME, organism-based, Canis lupus familiaris; settings: in vivo
[15] = Clearance in Beagle dog plasma at 0.5 mg/kg, iv and measured upto 24 hrs by LC-MS/MS analysis; assay type: ADME, organism-based, Canis lupus familiaris
[16] = Volume of distribution at steady state in Sprague-Dawley rat at 1 mg/kg, iv; assay type: ADME, organism-based; settings: in vivo, read-out: Vdss
[17] = Volume of distribution at steady state in Beagle dog at 0.5 mg/kg, iv and measured upto 24 hrs by LC-MS/MS analysis; assay type: ADME, organism-based, Canis lupus familiaris; settings: in vivo, read-out: Vdss
[18] = biological target: Replicase polyprotein 1ab (Severe acute respiratory syndrome coronavirus 2, UniProt P0DTD1); test: Inhibition of SARS-CoV-2 3CL protease by FRET assay
[19] = biological target: T1, Non-structural protein 4b; test: Binding affinity to full length Hepatitis C virus genotype 1b NS4B expressed in Escherichia coli assessed as inhibition constant
SARS-CoV-2 = test: Antiviral activity against SARS-CoV-2 infected in human Huh-7 cells assessed as reduction in viral growth; assay type: functional, organism-based; settings: Severe acute respiratory syndrome coronavirus 2, Huh-7
[20] = biological target: T1, Non-structural protein 4b; test: Inhibition of Hepatitis C virus genotype 1a NS4B
[21] = biological target: T1, Non-structural protein 4b; test: Inhibition of Hepatitis C virus genotype 1b NS4B
[22] = biological target: T1, Non-structural protein 4b; test: Inhibition of Hepatitis C virus genotype 3a NS4B
[23] = AUC in Sprague-Dawley rat at 2 mg/kg, po; assay type: ADME, organism-based; settings: in vivo

**Q.** For `C=C[C@@H]1C[C@]1(NC(=O)[C@@H]1C[C@@H](Oc2cc(-c3ccccc3)nc3cc(OC)ccc23)CN1C(=O)[C@@H](NC(=O)OC1CCCC1)C(C)(C)C)C(=O)O`, which IC50 [1] is on record?
**A.** 14 nM

**Q.** Which Ki [2] does the source give for `CC[C@@H](C=O)NC(=O)[C@@H]1C[C@@H](OCc2ccccc2)CN1C(=O)[C@@H](NC(=O)[C@@H](NC(=O)c1cnccn1)C(C)C)C(C)C` (Pyrazinecarbonyl-VV[Hyp](Bn)[Abu]-aldehyde) here?
**A.** 12000 nM

**Q.** For `C=C[C@@H]1C[C@]1(NC(=O)[C@@H]1C[C@@H]2CN1C(=O)[C@H](C(C)(C)C)NC(=O)OCCC/C=C/c1ccc3ccnc(c3c1)O2)C(=O)NS(=O)(=O)C1CC1`, which IC50 [1] is on record?
**A.** 210 nM

**Q.** For `CC[C@@H](C=O)NC(=O)[C@@H]1C[C@@H](OC(=O)N2CCc3ccccc3C2)CN1C(=O)[C@@H](NC(=O)[C@@H](NC(=O)c1cnccn1)C(C)C)C(C)C` (Pyrazinecarbonyl-VV[Hyp]([CO-Tetrahydroisoquinolin(2-yl)])[Abu]-aldehyde), which Ki [2] is on record?
**A.** 890 nM

**Q.** With `CCC[C@H](NC(=O)[C@@H]1C[C@@H](OCc2cccc3ccccc23)CN1C(=O)[C@@H](NC(=O)[C@@H](NC(=O)[C@@H](CC(=O)O)NC(=O)[C@H](CC(=O)O)NC(C)=O)C1CCCCC1)C(C)C)C(=O)O` as the molecule, how does the IC50 [3] read?
**A.** 27 nM

**Q.** For `COc1ccc2nc3c(nc2c1)O[C@@H]1CC2C(=O)N[C@]4(C(=O)NS(=O)(=O)C5(C)CC5)C[C@@H]4/C=C/CCCCC[C@H](NC(=O)O[C@@H]4CCC[C@H]4CCCCC3)C(=O)N2C1` (some centres not stated), which bioavailability [4] is on record?
**A.** 8%

**Q.** And the bioavailability [5]?
**A.** 12%

**Q.** What about the clearance [6] of the same molecule?
**A.** 33 mL/min/kg

**Q.** What about the Ki [7] of the same molecule?
**A.** 0.005 nM

**Q.** What about the Ki [8] of the same molecule?
**A.** 0.26 nM

**Q.** What about the Cmax [9] of the same molecule?
**A.** 70 nM

**Q.** What about the half-life [10] of the same molecule?
**A.** 228 min

**Q.** And the AUC [11]?
**A.** 2470 µM·h

**Q.** And the half-life [12]?
**A.** 138 min

**Q.** And the AUC [13]?
**A.** 20 µM·h

**Q.** And the Cmax [14]?
**A.** 350 nM

**Q.** And the clearance [15]?
**A.** 4.4 mL/min/kg

**Q.** What about the Vd [16] of the same molecule?
**A.** 4 L/kg

**Q.** And the Vd [17]?
**A.** 0.5 L/kg

**Q.** Which Ki [2] does the source give for `CCC[C@H](NC(=O)[C@@H]1C[C@@H](OC(=O)N2CCc3ccccc3C2)CN1C(=O)[C@@H](NC(=O)[C@@H](NC(=O)c1cnccn1)C(C)C)C(C)C)C(=O)C(=O)NC1CC1` here?
**A.** 2300 nM

**Q.** For `CC(C)(C)OC(=O)N[C@H]1CCCCC/C=C\[C@@H]2C[C@@]2(C(=O)NS(=O)(=O)C2CC2)NC(=O)[C@@H]2C[C@@H](OC(=O)N3Cc4cccc(F)c4C3)CN2C1=O` [DANOPREVIR], which Ki [7] is on record?
**A.** 1 nM

**Q.** Which IC50 [18] does the source give for `COc1ccc2c(O[C@@H]3C[C@H]4C(=O)N[C@]5(P(=O)(O)Cc6ccccc6)C[C@H]5CCCCCCC[C@H](NC(=O)OC5CCCC5)C(=O)N4C3)cc(-c3csc(NC(C)C)n3)nc2c1` here?
**A.** 6 nM

**Q.** Which IC50 [3] does the source give for `CC[C@H](C)[C@H](NC(=O)[C@@H](CC(=O)O)NC(=O)[C@H](CC(=O)O)NC(C)=O)C(=O)N[C@H](C(=O)N1CCC[C@H]1C(=O)N[C@@H](CS)C(=O)O)C(C)C` (Ac-D[dD]IVPC-OH) here?
**A.** 4000 nM

**Q.** What does the source list for `COc1ccc2c(O[C@@H]3C[C@H]4C(=O)N[C@]5(P(=O)(O)Cc6c(F)cccc6F)C[C@H]5CCCCCCC[C@H](NC(=O)OC5CCCC5)C(=O)N4C3)cc(-c3csc(NC(C)C)n3)nc2c1Cl` [GS-9256]?
**A.** Ki [19]: 0.089 nM; EC50 (SARS-CoV-2): 20 nM

**Q.** Which IC50 [20] does the source give for `C=C[C@@H]1C[C@]1(NC(=O)[C@@H]1C[C@@H](Oc2ncc(OC)c3ccccc23)CN1C(=O)[C@@H](NC(=O)OC(C)(C)C)C(C)(C)C)C(=O)NS(=O)(=O)C1CC1` here?
**A.** 7 nM

**Q.** And the EC50 (SARS-CoV-2)?
**A.** 19 nM

**Q.** Which Ki [8] does the source give for `C=C[C@@H]1C[C@]1(NC(=O)[C@@H]1C[C@@H]2CN1C(=O)[C@H](C(C)(C)C)NC(=O)O[C@@H]1C[C@H]1CCCCCc1nc3ccc(OC)cc3cc1O2)C(=O)NS(=O)(=O)C1CC1` here?
**A.** 0.31 nM

**Q.** And the IC50 [1]?
**A.** 13 nM

**Q.** And the Ki [19]?
**A.** 0.02 nM

**Q.** Which results are given for `C=C[C@@H]1C[C@]1(NC(=O)[C@@H]1C[C@@H](Oc2cc3ccccc3cn2)CN1C(=O)[C@@H](NC(=O)OCC(C)C)C(C)(C)C)C(=O)NS(=O)(=O)C1(C)CC1`?
**A.** IC50 [21]: 2.7 nM; IC50 [22]: 430 nM

**Q.** With `COc1ccc2c(O[C@@H]3C[C@H]4C(=O)N[C@]5(C(=O)O)C[C@H]5/C=C\CCCCC[C@H](NC(=O)OC5CCCC5)C(=O)N4C3)cc(-c3csc(NC(C)C)n3)nc2c1` as the molecule, how does the IC50 [3] read?
**A.** 3000 nM

**Q.** What does the source list for `Cc1cnc(C(=O)N[C@H]2CCCCC/C=C\[C@@H]3C[C@@]3(C(=O)NS(=O)(=O)C3CC3)NC(=O)[C@@H]3C[C@@H](Oc4nc5ccccc5c5ccccc45)CN3C2=O)cn1`?
**A.** bioavailability [5]: 41%; AUC [23]: 19 µM·h; half-life [10]: 24 min; half-life [12]: 72 min
